The supplement of paper PMC11061612

Experiments:
Test in all cases: combination Emax (second highest fraction inhibited in the dose matrix, 72 h); higher = more inhibition; extreme values may be limits of the assay
SK-MEL-1 (Melanoma) = system: SK-MEL-1 (Melanoma)
Method in brief: (§1)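 After 24 hours at 37°C and 5% CO2 in 1536-well plates, cells in DMEM/F12 or RPMI plus 10% FBS received two-drug dose matrices for 72 hours. Viability came from CellTiter-Glo 2.0 luminescence and was scaled as inhibition, anchored at 0 by vehicle wells and at 1 by blank wells. Combination Emax is taken as the second-highest inhibition in the matrix, and Bliss excess as the observed combination effect less EA + EB − EA·EB, with EA and EB the single-agent effects.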

[1] = system: DOK (Oral Cavity Carcinoma)
Method in brief: as §1

HCC38 (Breast Carcinoma) = system: HCC38 (Breast Carcinoma)
Method in brief: as §1

MCF7 (Breast Carcinoma) = system: MCF7 (Breast Carcinoma)
Method in brief: as §1

HuO9 (Osteosarcoma) = system: HuO9 (Osteosarcoma)
Method in brief: as §1

[2] = system: MES-SA (Other Solid Carcinomas)
Method in brief: as §1

EW-22 (Ewing's Sarcoma) = system: EW-22 (Ewing's Sarcoma)
Method in brief: as §1

[3] = system: NOMO-1 (Acute Myeloid Leukemia)
Method in brief: as §1

[4] = system: P31-FUJ (Acute Myeloid Leukemia)
Method in brief: as §1

[5] = system: JHH-6 (Hepatocellular Carcinoma)
Method in brief: as §1

[6] = system: HCC-827 (Lung Adenocarcinoma)
Method in brief: as §1

[7] = system: TYK-nu (Ovarian Carcinoma)
Method in brief: as §1

[8] = system: SNU-61 (Colorectal Carcinoma)
Method in brief: as §1

MSTO-211H (Mesothelioma) = system: MSTO-211H (Mesothelioma)
Method in brief: as §1

[9] = system: KG-1 (Acute Myeloid Leukemia)
Method in brief: as §1

[10] = system: SW48 (Colorectal Carcinoma)
Method in brief: as §1

[11] = system: SK-UT-1 (Other Solid Carcinomas)
Method in brief: as §1

[12] = system: SW948 (Colorectal Carcinoma)
Method in brief: as §1

A172 (Glioblastoma) = system: A172 (Glioblastoma)
Method in brief: as §1

[13] = system: CAL-39 (Other Solid Carcinomas)
Method in brief: as §1

| SMILES | combination Emax (SK-MEL-1 (Melanoma)) | combination Emax [1] | combination Emax (HCC38 (Breast Carcinoma)) | combination Emax (MCF7 (Breast Carcinoma)) | combination Emax (HuO9 (Osteosarcoma)) | combination Emax [2] | combination Emax (EW-22 (Ewing's Sarcoma)) | combination Emax [3] | combination Emax [4] | combination Emax [5] | combination Emax [6] | combination Emax [7] | combination Emax [8] | combination Emax (MSTO-211H (Mesothelioma)) | combination Emax [9] | combination Emax [10] | combination Emax [11] | combination Emax [12] | combination Emax (A172 (Glioblastoma)) | combination Emax [13] |
| --- | --- | --- | --- | --- | --- | --- | --- | --- | --- | --- | --- | --- | --- | --- | --- | --- | --- | --- | --- | --- |
| COc1nnc2ccc(N3CCC(c4ccc(OCCN5CCN(C)C(=O)[C@H]5C)cc4)CC3)nn12 [AZD5153] + CC1(C)CCC(CN2CCN(c3ccc(C(=O)NS(=O)(=O)c4ccc(NCC5CCOCC5)c([N+](=O)[O-])c4)c(Oc4cnc5[nH]ccc5c4)c3)CC2)=C(c2ccc(Cl)cc2)C1 [Venetoclax] (first compound max 1 µM, 7x7, partner max 1 µM) | 0.625 | 0.431 | 0.458 | 0.669 | 0.796 | 0.386 | 0.6 | 1 | 0.974 | 0.463 | 0.348 | 0.571 | 0.389 | 0.271 | 1 | 0.631 | 0.543 | 0.513 | 0.479 | 0.631 |
| COc1nnc2ccc(N3CCC(c4ccc(OCCN5CCN(C)C(=O)[C@H]5C)cc4)CC3)nn12 [AZD5153] + CCN(CCO)CCCOc1ccc2c(Nc3cc(CC(=O)Nc4cccc(F)c4)[nH]n3)ncnc2c1 [AZD2811] (first compound max 1 µM, 7x7, partner max 1 µM) | 0.556 | 0.544 | 0.426 | 0.653 | 0.673 | 0.587 | 0.787 | 0.961 | 0.982 | 0.552 | 0.43 | 0.657 | 0.429 | 0.26 | 0.789 | 0.912 | 0.658 | 0.65 | 0.574 | 0.691 |
| COc1nnc2ccc(N3CCC(c4ccc(OCCN5CCN(C)C(=O)[C@H]5C)cc4)CC3)nn12 [AZD5153] + C[C@@H]1COCCN1C2=NC(=NC(=C2)C3(CC3)[S@](=N)(=O)C)C4=C5C=CNC5=NC=C4 [AZD6738] (first compound max 1 µM, 7x7, partner max 10 µM) | 0.689 | 0.569 | 0.486 | 0.747 | 0.938 | 0.763 | 0.927 | 1 | 0.987 | 0.705 | 0.578 | 0.803 | 0.544 | 0.359 | 0.905 | 0.752 | 0.925 | 0.675 | 0.739 | 0.797 |
| COc1nnc2ccc(N3CCC(c4ccc(OCCN5CCN(C)C(=O)[C@H]5C)cc4)CC3)nn12 [AZD5153] + Cc1c2c(nn1C)CSCc1cc(n(C)n1)CSc1cc(c3ccccc3c1)OCCCc1c(C(=O)O)n(C)c3c-2c(Cl)ccc13 [AZD5991] (first compound max 1 µM, 7x7, partner max 1 µM) | 0.679 | 0.914 | 0.479 | 0.769 | 0.996 | 0.593 | 0.888 | 1 | 0.995 | 0.436 | 0.366 | 0.646 | 0.452 | 0.293 | 1 | 0.711 | 0.653 | 0.573 | 0.485 | 0.905 |
| COc1nnc2ccc(N3CCC(c4ccc(OCCN5CCN(C)C(=O)[C@H]5C)cc4)CC3)nn12 [AZD5153] + Cn1cnc2c(F)c(Nc3ccc(Br)cc3Cl)c(C(=O)NOCCO)cc21 [Selumetinib] (first compound max 1 µM, 7x7, partner max 10 µM) | 0.983 | 0.648 | 0.342 | 0.704 | 0.706 | 0.478 | 0.517 | 1 | 0.985 | 0.507 | 0.375 | 0.755 | 0.69 | 0.41 | 0.817 | 0.786 | 0.486 | 0.752 | 0.511 | 0.827 |
| Cc1c2c(nn1C)CSCc1cc(n(C)n1)CSc1cc(c3ccccc3c1)OCCCc1c(C(=O)O)n(C)c3c-2c(Cl)ccc13 [AZD5991] + C1CN(CCC1(C(=O)N[C@@H](CCO)C2=CC=C(C=C2)Cl)N)C3=NC=NC4=C3C=CN4 [Capivasertib] (first compound max 1 µM, 7x7, partner max 3 µM) | 0.118 | 0.383 | 0.506 | 0.687 | 1 | 0.367 | 0.624 | 0.909 | 0.99 | 0.278 | 0.314 | 0.36 | 0.117 | 0.245 | 1 | 0.28 | 0.24 | 0.569 | 0.234 | 0.384 |
| Cc1c2c(nn1C)CSCc1cc(n(C)n1)CSc1cc(c3ccccc3c1)OCCCc1c(C(=O)O)n(C)c3c-2c(Cl)ccc13 [AZD5991] + C=CCn1c(=O)c2cnc(Nc3ccc(N4CCN(C)CC4)cc3)nc2n1-c1cccc(C(C)(C)O)n1 [AZD1775] (first compound max 1 µM, partner max 1 µM) | 0.402 | 0.758 | 0.657 | 0.652 | 1 | 0.84 | 0.789 | 0.989 | 0.99 | 0.326 | 0.401 | 0.761 | 0.49 | 0.596 | 1 | 0.402 | 0.613 | 0.714 | 0.609 | 0.677 |
| Cc1c2c(nn1C)CSCc1cc(n(C)n1)CSc1cc(c3ccccc3c1)OCCCc1c(C(=O)O)n(C)c3c-2c(Cl)ccc13 [AZD5991] + CC1(C)CCC(CN2CCN(c3ccc(C(=O)NS(=O)(=O)c4ccc(NCC5CCOCC5)c([N+](=O)[O-])c4)c(Oc4cnc5[nH]ccc5c4)c3)CC2)=C(c2ccc(Cl)cc2)C1 [Venetoclax] (first compound max 1 µM, 7x7, partner max 1 µM) | 0.22 | 0.758 | 0.463 | 0.745 | 1 | 0.323 | 0.839 | 0.981 | 0.998 | 0.0668 | 0.182 | 0.233 | 0.155 | 0.137 | 1 | 0.339 | 0.138 | 0.236 | 0.268 | 0.292 |
| Cc1c2c(nn1C)CSCc1cc(n(C)n1)CSc1cc(c3ccccc3c1)OCCCc1c(C(=O)O)n(C)c3c-2c(Cl)ccc13 [AZD5991] + CCN(CCO)CCCOc1ccc2c(Nc3cc(CC(=O)Nc4cccc(F)c4)[nH]n3)ncnc2c1 [AZD2811] (first compound max 1 µM, 7x7, partner max 1 µM) | 0.312 | 0.883 | 0.521 | 0.692 | 0.991 | 0.806 | 0.88 | 0.93 | 0.994 | 0.257 | 0.245 | 0.534 | 0.254 | 0.443 | 1 | 0.984 | 0.367 | 0.587 | 0.474 | 0.815 |
| Cc1c2c(nn1C)CSCc1cc(n(C)n1)CSc1cc(c3ccccc3c1)OCCCc1c(C(=O)O)n(C)c3c-2c(Cl)ccc13 [AZD5991] + CN(C)CCCOc1ccc(-c2ccc3ncc4c(c3c2)n(C2CCOCC2)c(=O)n4C)cn1 [AZD0156] (first compound max 1 µM, 7x7, partner max 1 µM) | 0.261 | 0.331 | 0.365 | 0.612 | 1 | 0.384 | 0.512 | 0.863 | 0.974 | 0.188 | 0.345 | 0.397 | 0.196 | 0.188 | 1 | 0.216 | 0.245 | 0.296 | 0.228 | 0.515 |
| Cc1c2c(nn1C)CSCc1cc(n(C)n1)CSc1cc(c3ccccc3c1)OCCCc1c(C(=O)O)n(C)c3c-2c(Cl)ccc13 [AZD5991] + C[C@@H]1COCCN1C2=NC(=NC(=C2)C3(CC3)[S@](=N)(=O)C)C4=C5C=CNC5=NC=C4 [AZD6738] (first compound max 1 µM, 7x7, partner max 10 µM) | 0.226 | 0.633 | 0.688 | 0.776 | 1 | 0.762 | 0.921 | 0.995 | 0.998 | 0.416 | 0.426 | 0.74 | 0.349 | 0.688 | 1 | 0.739 | 0.801 | 0.563 | 0.679 | 0.645 |
| Cc1c2c(nn1C)CSCc1cc(n(C)n1)CSc1cc(c3ccccc3c1)OCCCc1c(C(=O)O)n(C)c3c-2c(Cl)ccc13 [AZD5991] + C[C@@H](Nc1cc(F)cc(F)c1)c1cc(C(=O)N(C)C)cc2c(=O)cc(N3CCOCC3)oc12 [AZD8186] (first compound max 1 µM, 7x7, partner max 3 µM) | 0.153 | 0.459 | 0.396 | 0.71 | 1 | 0.267 | 0.491 | 0.905 | 0.959 | 0.236 | 0.288 | 0.254 | 0.168 | 0.313 | 1 | 0.387 | 0.188 | 0.345 | 0.304 | 0.704 |
